In PMC6792352, “Limited Chemical Structural Diversity Found to Modulate Thyroid Hormone Receptor in the Tox21 Chemical Library” (Environmental Health Perspectives, 2019):
Structures can show the parent of a compound that is named as a salt.

assay: in vitro; details: rat, gh3-tre-luc cells, AC50 (uM) modified / 1000

SMILES	CC50 at 24 h
COC(=O)CS [Methyl thioglycolate]	> 90 µM
Nc1ccc(-c2ccc(F)cc2)cc1 [4'-Fluoro-4-aminodiphenyl]	> 90 µM
CCNCC(O)c1cccc(O)c1 (stereo not shown) [Etilefrine hydrochloride]	> 20 µM
O=C1CCC(=O)N1CO [N-Hydroxymethylsuccinimide]	> 50 µM
Cc1ccc2oc(CN(Cc3ccccc3)C(=O)Nc3c(F)cc(F)cc3F)c(-c3ccc(Cl)cc3)c2c1 [FR145237]	> 80 µM
O=C(O)/C=C/c1ccc(O)c(O)c1 [Caffeic acid]	> 90 µM
COC(=O)C(C)N(C(=O)c1ccco1)c1c(C)cccc1C (stereo not shown) [Furalaxyl]	> 90 µM
C[C@@H](O)[C@@H](C)O [2,3-Butanediol]	> 100 µM
C[C@]12CC[C@@H]3c4ccc(O)cc4CC[C@H]3[C@@H]1CC[C@@H]2O [17beta-Estradiol]	> 90 µM
c1ccc(CC2=NCCN2)cc1 [Tolazoline hydrochloride]	> 20 µM
N#CC(Cl)(Cl)Cl [Trichloroacetonitrile]	> 90 µM
CC(C)=CCC/C(C)=C/C=O [3,7-Dimethyl-2,6-octadienal]	> 90 µM
NNC(=O)c1cccc(C(=O)NN)c1 [1,3-Benzenedicarboxylic acid, dihydrazide]	> 90 µM
O=C(Cl)c1ccc(F)c(Cl)c1 [3-Chloro-4-fluorobenzoyl chloride]	> 90 µM
CC(C)(C)c1n[nH]c(=S)n(N)c1=O [4-Amino-6-tert-butyl-3-thioxo-3,4-dihydro-1,2,4-triazin-5(2H)-one]	> 90 µM
CCCCC(=O)O[C@]1(C(=O)CO)CC[C@H]2[C@@H]3CCC4=CC(=O)CC[C@]4(C)[C@H]3[C@@H](O)C[C@@]21C [Hydrocortisone valerate]	> 50 µM
CCCCC[C@H](O)/C=C/[C@H]1[C@H](O)CC(=O)[C@@H]1CCCCCCC(=O)O [Alprostadil]	> 20 µM
C[C@@](Cc1ccc(O)c(O)c1)(NN)C(=O)O [Carbidopa]	> 50 µM
COC(=O)C1=C(C)NC(COC(N)=O)=C(C(=O)OC(C)C)C1c1cccc(Cl)c1Cl (stereo not shown) [Lemildipine]	25.8 µM
COc1ccccc1Oc1c(NS(=O)(=O)c2ccc(C(C)(C)C)cc2)nc(-c2ncccn2)nc1OCCO [Bosentan]	> 50 µM
CCCCOC(=O)c1ccccc1C(=O)OCCCC [Dibutyl phthalate]	> 90 µM
CCCCC(=O)O[C@H]1CC[C@H]2[C@@H]3CCc4cc(O)ccc4[C@H]3CC[C@]12C [Estradiol valerate]	41.5 µM
N#CC(C#N)=Cc1ccc(O)c(O)c1 [Tyrphostin 23]	16.8 µM
CC(=O)OC/C=C(/C)CCC=C(C)C [cis-3,7-Dimethyl-2,6-octadien-1-yl acetate]	> 90 µM
CC(=O)SCC(CC(=O)c1ccc(C)cc1)C(=O)O (stereo not shown) [Esonarimod]	> 50 µM

SMILES	CC50 at 24 h
O=C(O)c1cc(C(=O)O)cc([N+](=O)[O-])c1 [5-Nitroisophthalic acid]	> 90 µM
CC(C)(C)N(CCO)CCO [2,2'-(tert-Butylimino)diethanol]	> 90 µM
CN1CCN(C2=Nc3ccccc3Cc3ccccc32)CC1 [Perlapine]	25.9 µM
CC(=O)CC(=O)OC(C)(C)C [tert-Butyl 3-oxobutanoate]	> 90 µM
OC[C@H]1O[C@@H]2O[C@H]3[C@H](O)[C@@H](O)[C@@H](O[C@H]4[C@H](O)[C@@H](O)[C@@H](O[C@H]5[C@H](O)[C@@H](O)[C@@H](O[C@H]6[C@H](O)[C@@H](O)[C@@H](O[C@H]7[C@H](O)[C@@H](O)[C@@H](O[C@H]8[C@H](O)[C@@H](O)[C@@H](O[C@H]1[C@H](O)[C@H]2O)O[C@@H]8CO)O[C@@H]7CO)O[C@@H]6CO)O[C@@H]5CO)O[C@@H]4CO)O[C@@H]3CO [beta-Cyclodextrin]	> 90 µM
CCCCCOC(=O)CCCC [Pentyl valerate]	> 90 µM
COc1ccc(/C=N/NC(=O)c2ccncc2)cc1OC [Verazide]	> 50 µM
N#Cc1c2ccccc2cc2ccccc12 [9-Cyanoanthracene]	> 90 µM
Nc1cccc([N+](=O)[O-])c1 [3-Nitroaniline]	> 90 µM
CC(=O)c1ccccc1O [2-Hydroxyacetophenone]	> 90 µM
CCC(C)=NO [2-Butanone oxime]	> 90 µM
CC1CC(C)C(=O)C1=O (stereo not shown) [3,5-Dimethyl-1,2-cyclopentanedione]	> 90 µM
CCCOc1ccccc1-c1nc2nn[nH]c2c(=O)[nH]1 [Zaprinast]	> 50 µM
CC(C)NCC(O)c1cc(O)cc(O)c1 (stereo not shown) [Orciprenaline sulfate]	> 50 µM
COc1ccc(CCN(C)CCCC(C#N)(c2cc(OC)c(OC)c(OC)c2)C(C)C)cc1OC (stereo not shown) [Gallopamil hydrochloride]	21 µM
Cc1ccc2c(c1)c1c3n2CCNC3CCC1 (stereo not shown) [Pirlindole mesylate]	9.12 µM
COc1cc(Cl)c(OC)cc1N [2,5-Dimethoxy-4-chloroaniline]	> 90 µM
CC(C)C[C@H](NC(=O)[C@@H](COC(C)(C)C)NC(=O)[C@H](Cc1ccc(O)cc1)NC(=O)[C@H](CO)NC(=O)[C@H](Cc1c[nH]c2ccccc12)NC(=O)[C@H](Cc1cnc[nH]1)NC(=O)[C@@H]1CCC(=O)N1)C(=O)N[C@@H](CCCNC(=N)N)C(=O)N1CCC[C@H]1C(=O)NNC(N)=O [Goserelin acetate]	> 50 µM
CN1CCC[C@@H]1Cc1c[nH]c2ccc(CCS(=O)(=O)c3ccccc3)cc12 [Eletriptan]	21.1 µM
O=[N+]([O-])c1ccc(CBr)cc1 [4-Nitrobenzylbromide]	> 100 µM
COc1ccc(O)cc1 [4-Methoxyphenol]	> 90 µM
CC(=C(CCOC(=O)C(C)C)SSC(CCOC(=O)C(C)C)=C(C)N(C=O)Cc1cnc(C)nc1N)N(C=O)Cc1cnc(C)nc1N (stereo in doubt) [Bisibutiamine]	> 50 µM
Cc1cc(C(C#N)c2ccc(Cl)cc2)c(Cl)cc1NC(=O)c1cc(I)cc(I)c1O (stereo not shown) [Closantel]	25 µM
N#CCBr [Bromoacetonitrile]	> 100 µM
CCC/C(=N\OCC)C1=C(O)CC(CC(C)SCC)CC1=O (stereo not shown) [Sethoxydim]	> 90 µM

SMILES	CC50 at 24 h
CCC(C)(C)c1ccc(CC(C)CN2C[C@@H](C)O[C@@H](C)C2)cc1 (stereo partly shown) [Amorolfine]	11.1 µM
CCCCCCCCCCC[C@@H](C[C@@H]1OC(=O)[C@H]1CCCCCC)OC(=O)[C@H](CC(C)C)NC=O [Orlistat]	> 50 µM
c1ccc(OCCOc2ccccc2)cc1 [1,2-Diphenoxyethane]	> 90 µM
O=c1c2ccccc2nnn1CCl [3-(Chloromethyl)-1,2,3-benzotriazin-4(3H)-one]	> 90 µM
O=[N+]([O-])c1ccc(Cl)cc1Cl [2,4-Dichloronitrobenzene]	> 90 µM
CC1=C(CC=O)C(C)(C)CCC1 [2,6,6-Trimethyl-1-cyclohexene-1-acetaldehyde]	> 90 µM
O=C1CC[C@H](C(=O)N2CCCCC2)N1 [Fasoracetam]	> 50 µM
O=C1Nc2ccccc2C1(c1ccc(O)cc1)c1ccc(O)cc1 [Oxyphenisatin]	61.2 µM
O=P(O)(O)C(O)(Cn1ccnc1)P(=O)(O)O [Zoledronate]	> 50 µM
O=C(O)c1nc(=O)[nH]c(=O)[nH]1 [Potassium oxonate]	> 50 µM
CCCCC(CC)C(=O)OCCOCCOCCOC(=O)C(CC)CCCC (stereo not shown) [Triethylene glycol bis(2-ethylhexanoate)]	> 90 µM
FC(F)(F)C(Cl)Br (stereo not shown) [Halothane]	> 90 µM
c1ccc(SCCSc2ccccc2)cc1 [1,2-Bis(phenylthio)ethane]	> 90 µM
C1CCCC1 [Cyclopentane]	> 90 µM
CC(C)(C)C1(CCc2ccc(Cl)cc2)CO1 (stereo not shown) [2-(2-(4-Chlorophenyl)ethyl)-2-(1,1-dimethylethyl)oxirane]	> 90 µM
O=C(Nc1ccccc1)c1ccccc1O [Salicylanilide]	> 90 µM
FC(F)C(F)(F)OCC(Cn1cncn1)c1ccc(Cl)cc1Cl (stereo not shown) [Tetraconazole]	> 90 µM
O=[N+]([O-])c1ccc(/C=C/c2ccc([N+](=O)[O-])cc2S(=O)(=O)O)c(S(=O)(=O)O)c1 [Disodium 4,4'-dinitro-2,2'-stilbenedisulfonate]	> 90 µM
CCCOC(=O)C(C)O (stereo not shown) [Propanoic acid,2-hydroxy-,propylester]	> 90 µM
C=CCOC(C)=O [Allyl acetate]	> 90 µM
C1COCO1 [1,3-Dioxolane]	> 90 µM
S=C=Nc1cccc2ccccc12 [alpha-Naphylisothiocyanate]	> 90 µM
COC(=O)C(C)=O [Methylpyruvate]	> 90 µM
COC(=O)c1ccccc1O [Methyl salicylate]	> 90 µM
Nc1ccccc1S(=O)(=O)O [Orthanilic acid]	> 90 µM

same assay, conditions: rat, gh3-tre-luc cells, AC50 (uM) modified / 1000, Tox21_110001=Tox21_110931; viability, 1 nM T3 present, 24 h

SMILES	CC50 at 24 h
Cc1ncsc1CCCl [Clomethiazole]	> 50 µM

same assay, conditions: rat, gh3-tre-luc cells, AC50 (uM) modified / 1000, Tox21_110001=Tox21_200362; viability, 1 nM T3 present, 24 h

SMILES	CC50 at 24 h
CC(Cl)CCl (stereo not shown) [1,2-Dichloropropane]	> 90 µM

same assay, conditions: rat, gh3-tre-luc cells, AC50 (uM) modified / 1000, Tox21_110001=Tox21_201790; viability, 1 nM T3 present, 24 h

SMILES	CC50 at 24 h
CCCCCCCCCCCCCl [1-Chlorododecane]	> 90 µM

same assay, conditions: rat, gh3-tre-luc cells, AC50 (uM) modified / 1000, Tox21_110001=Tox21_201946; viability, 1 nM T3 present, 24 h

SMILES	CC50 at 24 h
CCOc1ccc(N)cc1 [4-Ethoxyaniline]	> 90 µM

same assay, conditions: rat, gh3-tre-luc cells, AC50 (uM) modified / 1000, Tox21_110001=Tox21_202091; viability, 1 nM T3 present, 24 h

SMILES	CC50 at 24 h
Nc1ccc2ccccc2c1 [2-Naphthylamine]	> 90 µM

same assay, conditions: rat, gh3-tre-luc cells, AC50 (uM) modified / 1000, Tox21_110001=Tox21_301204; viability, 1 nM T3 present, 24 h

SMILES	CC50 at 24 h
NNCCO [2-Hydroxyethylhydrazine]	> 90 µM

same assay, conditions: rat, gh3-tre-luc cells, AC50 (uM) modified / 1000, Tox21_110001=Tox21_301514; viability, 1 nM T3 present, 24 h

SMILES	CC50 at 24 h
CCCCOC(=O)CCC(=O)OCCCC [Dibutyl butanedioate]	> 90 µM
